This is an account of results in patent publication US20210038579A1, “Treatment Of Patients With Classic Fabry Disease” (Amicus Therapeutics, Inc., priority 2018, published 2021).

The test can be described thus: Phase 3 study, ERT-naïve Fabry patients: Gastrointestinal Symptoms Rating Scale for Diarrhea (GSRS-D). The format is in vivo, human. The following applies: for mean change in GSRS-D: total amenable patient population. On the procedure: Patient Enrollment. […] Study Design. […] Patient-Reported Outcomes. Patient-reported outcomes were assessed using the Gastrointestinal-Symptoms-Rating-Scale (GSRS), Short Form-36v2TM and Brief-Pain-Inventory-Pain-Severity-Component. For all outcomes except GL-3 inclusions per kidney interstitial capillary, data are pooled for patients within phenotype subgroups regardless of treatment allocation for the first six months (migalastat or placebo).

For `OC[C@H]1NC[C@H](O)[C@@H](O)[C@H]1O` [migalastat], the “classic male patients with diarrhea at baseline achieving MCID reduction of 0.33 in GSRS-D” value (7 of the 8 patients, by 24 months) was found to be 88%. The “mean (SD) change from baseline (or month 6) in diarrhea symptoms (GSRS-D)” value (classic male patients, by 24 months) is −0.9 (1.75). Moreover, the “mean (SD) change in GSRS-D” value (other patients, month 24) is reported as −0.5 (1.01). Further, the “mean change in GSRS-D” value is −0.3 (month 6) and −0.5 (month 24).
